Columns and labels:
Type in all cases: cell-based, Pseudomonas aeruginosa
[1] = tested on: P. aeruginosa strain PAR 20 biofilm; experiment: Early biofilm model, Congo red staining; conditions: for absorbance (Congo red, biofilm formation): early biofilm, 0.9 mM, 492 nm
Description: (§1) P. aeruginosa biofilm was set-up in sterile plastic 96-well plates with adherent surface (Greiner Bio-One, USA).
(§2) Twenty microliter quantities of the bacterial stock suspensions, prepared as described above, were added to each well followed with 180 μl of sterile TSB. Final concentration of the bacteria was 1×10^8 CFU/ml.
(§3) The plates were centrifuged for 10 minutes at 2000 rpm to sediment bacteria on the bottom of each well and then incubated for 72 hours (37° C., aerobic conditions).
(§4) Biofilm quantity was determined using Congo red dye according to a modified procedure described by Allison et al. (Allison G C, Sutherland I W. A staining technique for bacteria and its correlation to extracellular carbohydrate production. J Microbiol Meth 2, 93-99 (1984)).
(§5) Briefly, at different time points (0, 6, 18, 24, 48 and 72 hours), the culture medium was gently removed from wells by using the pipette and immediately 200 μl of 0.1% Congo red solution was added. The plates were left for 30 minutes at room temperature and then 10 minutes before the end of staining, the plate was centrifuged for 10 minutes at 2000 rpm and then washed twice with buffered saline to remove unbound dye. Absorbance was measured at λ=492 nm wavelength using spectrophotometer (Awarness Technology Inc., Palm City, Fla., USA). All measurements were performed in triplicates and mean values±SD are given.
(§6) Early biofilm model: formation of early biofilm under influence of the tested substances was observed by filling wells of a 96-well plate with 20 μl of P. aeruginosa suspension and 180 μl of TSB, as described above. Tested iminosugars (compounds 1, 2, 3 and 4) were added immediately after setting-up the bacteria at a final concentration of 0.9 mM. Then, the plate was gently mixed and incubated for 48 hours at 37° C.
(§7) Biofilm formation and the number of viable bacteria were checked in parallel in the following time intervals: 0, 0.5, 8, 24, 48 hours, in accordance with the procedure described above. Biofilm thickness was estimated by staining it with Cango Red and measuring optical density while number of viable bacteria was performed using the standard viable count method. (Allison G C, Sutherland I W. A staining technique for bacteria and its correlation to extracellular carbohydrate production. J Microbiol Meth 2, 93-99 (1984)).
(§8) P. aeruginosa suspension cultures in TSB broth alone were used as a control.

[2] = tested on: P. aeruginosa strain PAR 5 biofilm; experiment: Early biofilm model, Congo red staining; conditions: for absorbance (Congo red, biofilm formation): 0.9 mM, 492 nm
Description: as §1, §2, §3, §4, §5, §6, §7, §8

[3] = tested on: P. aeruginosa strain PAR 50 biofilm; experiment: Early biofilm model, Congo red staining; conditions: for absorbance (Congo red, biofilm formation): early biofilm, 0.9 mM, 492 nm
Description: as §1, §2, §3, §4, §5, §6, §7, §8

[4] = tested on: P. aeruginosa strain PAR 20 biofilm; experiment: Mature biofilm model, Congo red staining; conditions: for absorbance (Congo red, biofilm development): mature biofilm, compound added 48 h after induction of biofilm
Description: as §4, §5
(§9) Mature biofilm model: the tested substances were added 48 hours after adherence of bacteria to the wells in a 96-well plate. The growth conditions of P. aeruginosa were exactly the same, as described above for the early biofilm model.
(§10) After the addition of iminosugars (compounds 1, 2, 3 and 4), the biofilm formation and the number of viable bacteria were checked in the following time intervals: 48, 48.5, 56, 72, 96 hours.

[5] = tested on: P. aeruginosa strain PAR 5 biofilm; experiment: Mature biofilm model, Congo red staining; conditions: for absorbance (Congo red, biofilm development): mature biofilm, compound added 48 h after induction of biofilm
Description: as §4, §5, §9, §10

[6] = tested on: P. aeruginosa strain PAR 50 biofilm; experiment: Mature biofilm model, Congo red staining; conditions: for absorbance (Congo red, biofilm development): mature biofilm, compound added 48 h after induction of biofilm
Description: as §4, §5, §9, §10

[7] = tested on: P. aeruginosa strain PAR 20; experiment: Number of viable bacteria in early and mature biofilm (viable count)
Description: as §7, §10
(§11) Numbers of viable bacteria contained in the early and mature biofilm were estimated on separate plates with wells filled with tested P. aeruginosa strains as described above (PAR 5, PAR 20, PAR 50).
(§12) At the same time intervals, biofilm content in each well was removed and mixed by multiple pippeting and transferred to sterile tubes. Then decimal dilutions of the bacterial suspension were made in TSB broth, plated on McConkey Agar (Oxoid), and incubated at 37° C. for 24 hours.
(§13) Numbers of colonies grown on platter were counted and total numbers of the viable bacteria calculated as colony forming units (CFU) per ml.
(§14) The results depict logs of CFU/ml for three P. aeruginosa strains: PAR 5, PAR 20 and PAR 50 measured at different time intervals (0 hours, 8 hours, 24 hours, 48 hours, 56 hours, 72 hours and 96 hours). The detection limit is 100 CFU/ml.

[8] = tested on: P. aeruginosa strain PAR 50; experiment: as above
Description: as §7, §10, §11, §12, §13, §14

[9] = tested on: P. aeruginosa strain PAR 5; experiment: as above
Description: as §7, §10, §11, §12, §13, §14

[10] = tested on: P. aeruginosa strain PAR 5 biofilm; experiment: Reduction of biofilm growth (percent vs culture control)
Description: (§15) FIG. 4A represents the effect of the tested compounds (1, 2, 3 and 4) on exopolysaccharide biosynthesis in the early stages and mature P. aeruginosa biofilm formation, strain PAR 5. The abscissa represents the time (in hours) in order to differentiate early biofilm and mature biofilm, and the ordinate represents the percentage of the biofilm reduction.
as §6, §9
(§16) The effect of the tested compounds (1, 2, 3 and 4) on the reduction of biofilm growth has also been studied on the three P. aeruginosa strains PAR 5, PAR 20, PAR 50.
(§17) (Percent decrease in biofilm thickness was obtained as a mean value from 3 consecutive measurements of the Congo Red stained biofilm using spectrophotometer after addition of the tested iminosugars in comparison to control regarded as 100%).

[11] = tested on: P. aeruginosa strain PAR 20 biofilm; experiment: as above
Description: as §15, with “4B” for “4A”, “20.” for “5.”
as §6, §9, §16, §17

[12] = tested on: P. aeruginosa strain PAR 50 biofilm; experiment: as above
Description: as §15, with “4C” for “4A”, “50.” for “5.”
as §6, §9, §16, §17

[13] = in comparison with culture control

CCC[C@H]1N[C@@H](CO)[C@H](O)[C@H]1O [Compound 4, β-1-C-propyl-1,4-dideoxy-1,4-imino-L-arabinitol]
absorbance (Congo red, biofilm formation) ([1]; 8 hours): about 0.6 a.u.
absorbance (Congo red, biofilm formation) ([1]; 24 hours): about 1.0 a.u.
absorbance (Congo red, biofilm formation) ([1]; 48 hours): about 0.75 a.u.
effect on formation of an early biofilm [1, 13]: inhibit the formation of an early biofilm
biofilm formation at 8 hours, 24 hours and 48 hours ([2]; early biofilm): no biofilm formation
absorbance (Congo red, biofilm formation) ([2]; early biofilm, 8 hours): about 0.25 a.u.
absorbance (Congo red, biofilm formation) ([2]; early biofilm, 24 hours): about 0.25 a.u.
absorbance (Congo red, biofilm formation) ([2]; early biofilm, 48 hours): about 0.25 a.u.
effect on formation of an early biofilm [2, 13]: inhibit the formation of an early biofilm
absorbance (Congo red, biofilm formation) ([3]; 8 hours): about 0.8 a.u.
absorbance (Congo red, biofilm formation) ([3]; 24 hours): about 1.4 a.u.
absorbance (Congo red, biofilm formation) ([3]; 48 hours): about 0.9 a.u.
effect on formation of an early biofilm [3, 13]: inhibit the formation of an early biofilm
influence on mature biofilm formation [4]: weak influence
absorbance (Congo red, biofilm development) ([4]; 48 hours): about 0.5 a.u.
absorbance (Congo red, biofilm development) ([4]; 56 hours): about 0.75 a.u.
absorbance (Congo red, biofilm development) ([4]; 72 hours): about 1.25 a.u.
absorbance (Congo red, biofilm development) ([4]; 96 hours): about 1.75 a.u.
influence on mature biofilm formation [5]: weak influence
absorbance (Congo red, biofilm development) ([5]; 48 hours): about 0.5 a.u.
absorbance (Congo red, biofilm development) ([5]; 56 hours): about 1.25 a.u.
absorbance (Congo red, biofilm development) ([5]; 72 hours): about 1.25 a.u.
absorbance (Congo red, biofilm development) ([5]; 96 hours): about 0.5 a.u.
influence on mature biofilm formation [6]: weak influence
absorbance (Congo red, biofilm development) ([6]; 48 hours): about 1.4 a.u.
absorbance (Congo red, biofilm development) ([6]; 56 hours): about 1.4 a.u.
absorbance (Congo red, biofilm development) ([6]; 72 hours): about 1.5 a.u.
absorbance (Congo red, biofilm development) ([6]; 96 hours): about 1.75 a.u.
number of viable P. aeruginosa ([7]; early biofilm, 0 h): 5 × 10^6 CFU/ml
number of viable P. aeruginosa ([7]; early biofilm, 8 h): 2 × 10^7 CFU/ml
number of viable P. aeruginosa ([7]; early biofilm, 24 h): 4 × 10^8 CFU/ml
number of viable P. aeruginosa ([7]; early biofilm, 48 h): 3 × 10^9 CFU/ml
number of viable P. aeruginosa ([7]; mature biofilm, 56 h): 9 × 10^8 CFU/ml
number of viable P. aeruginosa ([7]; mature biofilm, 72 h): 8 × 10^7 CFU/ml
number of viable P. aeruginosa ([7]; mature biofilm, 96 h): 4 × 10^8 CFU/ml
number of viable P. aeruginosa ([8]; early biofilm, 0 h): 1 × 10^7 CFU/ml
number of viable P. aeruginosa ([8]; early biofilm, 8 h): 2 × 10^8 CFU/ml
number of viable P. aeruginosa ([8]; early biofilm, 24 h): 7 × 10^8 CFU/ml
number of viable P. aeruginosa ([8]; early biofilm, 48 h): 1 × 10^8 CFU/ml
number of viable P. aeruginosa ([8]; mature biofilm, 56 h): 3 × 10^9 CFU/ml
number of viable P. aeruginosa ([8]; mature biofilm, 72 h): 9 × 10^9 CFU/ml
number of viable P. aeruginosa ([8]; mature biofilm, 96 h): 1 × 10^9 CFU/ml
number of viable P. aeruginosa ([9]; early biofilm, 0 h): 9 × 10^6 CFU/ml
number of viable P. aeruginosa ([9]; early biofilm, 8 h): 3 × 10^6 CFU/ml
number of viable P. aeruginosa ([9]; early biofilm, 24 h): 9 × 10^7 CFU/ml
number of viable P. aeruginosa ([9]; early biofilm, 48 h): 3 × 10^7 CFU/ml
number of viable P. aeruginosa ([9]; mature biofilm, 56 h): 4 × 10^8 CFU/ml
number of viable P. aeruginosa ([9]; mature biofilm, 72 h): 3 × 10^8 CFU/ml
number of viable P. aeruginosa ([9]; mature biofilm, 96 h): 2 × 10^9 CFU/ml
reduction of biofilm growth ([10]; 8 hours of incubation): about 90%
reduction of biofilm growth ([10]; 24 hours of incubation): about 90%
reduction of biofilm growth ([10]; 48 hours of incubation): about 25%
reduction of biofilm growth ([10]; 72 hours of incubation): about 10%
effect on biofilm growth ([10]; notably an early biofilm): can reduce the biofilm growth
reduction of biofilm growth ([11]; 8 hours of incubation): about 60%
reduction of biofilm growth ([11]; 24 hours of incubation): about 35%
reduction of biofilm growth ([11]; 48 hours of incubation): about 45%
reduction of biofilm growth ([11]; 72 hours of incubation): about 0%
effect on biofilm growth ([11]; notably an early biofilm): can reduce the biofilm growth
reduction of biofilm growth ([12]; 8 hours of incubation): about 60%
reduction of biofilm growth ([12]; 24 hours of incubation): about 35%
reduction of biofilm growth ([12]; 48 hours of incubation): about 45%
reduction of biofilm growth ([12]; 72 hours of incubation): about 30%
effect on biofilm growth ([12]; notably an early biofilm): can reduce the biofilm growth
